# Values quoted from earlier work, collected in US20020012702A1, “Controlled release anti-inflammatory oral formulation and a process for the preparation thereof” (Ajanta Pharma, Ltd., priority 2000, published 2002).
smiles,measurement,setting,value
"CS(=O)(=O)Nc1ccc([N+](=O)[O-])cc1Oc1ccccc1 [Nimesulide, 4-Nitro-2-phenoxymethane sulfonanilide]",nimesulide plasma concentrations in the presence of food versus fasting conditions,"administered in the presence of food, higher than under fasting conditions",2 to 4 fold
same,half life,in vivo,3 to 4 h
